These results are taken from patent US20230416261A1, “ETHANEDIAMINE-HETEROCYCLE DERIVATIVES AS INHIBITORS OF PROTEIN ARGININE METHYLTRANSFERASES” (Board of Regents, The University of Texas System, priority 2021, published 2023).

Molecules are shown by their SMILES.

In one assay the target is PRMT1 (Homo sapiens, UniProt Q99873). The assay is described as follows: PRMT1 RKO Cellular Target Engagement Assay (In-Cell Western, asymmetric di-methyl arginine). The assay is classed as cell-based. Particulars: RKO cells, 48 hr compound incubation; read-out: RKO IC50 (PRMT-1 Target Engagement). The procedure, abridged: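 RKO cells (1,000/well) received 1:3 serially diluted compound for 48 h at 37 °C, then were fixed, permeabilised and immunostained for asymmetric di-methyl arginine by In-Cell Western. The 800 nm antibody signal was normalised to CellTag 700 nm; IC50 from four-parameter logistic fit.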
Chain of PRMT1 (Q99873 whole entry): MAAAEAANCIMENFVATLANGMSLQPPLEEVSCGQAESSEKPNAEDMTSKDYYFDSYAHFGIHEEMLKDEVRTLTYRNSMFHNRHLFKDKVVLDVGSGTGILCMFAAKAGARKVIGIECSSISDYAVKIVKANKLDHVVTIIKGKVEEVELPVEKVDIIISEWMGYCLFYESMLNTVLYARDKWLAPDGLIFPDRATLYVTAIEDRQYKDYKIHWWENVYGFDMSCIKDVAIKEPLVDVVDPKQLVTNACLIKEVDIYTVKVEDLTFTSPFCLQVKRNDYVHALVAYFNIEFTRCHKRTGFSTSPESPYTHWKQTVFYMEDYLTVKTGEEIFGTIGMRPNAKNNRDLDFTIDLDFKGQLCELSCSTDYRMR

For the next assay, the system named is DOHH2 cells. In words: DOHH2 Long Term Phenotypic Assay (7 days, Cell Titer-Glo viability). The assay is classed as cell-based. Particulars: Homo sapiens, DOHH-2, 168 h, Cell Titer-Glo 2.0. The procedure, abridged: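 DOHH2 lymphoma cells (250 per well) in RPMI-1640 with 10% FBS were exposed to 1:3 serially diluted compounds for 7 days at 37 °C, 5% CO2. Viability was read by CellTiter-Glo 2.0 luminescence, and IC50 values came from four-parameter logistic fits.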
Background: Cellular ATP, detected with luciferase, serves as a proxy for viable cell number.

In general, IC50 refers to the concentration that gives 50% inhibition. For `CNCCN(C)Cc1nn2c(c1C1CCC(COC)(COC)CC1)CN(C(=O)C1CCC1)CC2` [Example 1, (3-(4,4-Bis(methoxymethyl)cyclohexyl)-2-((methyl(2-(methylamino)ethyl)amino)methyl)-6,7-dihydropyrazolo[1,5-a]pyrazin-5(4H)-yl)(cyclobutyl)methanone], the values for the IC50 on PRMT1 and with DOHH2 cells were 138 nM and 66 nM, respectively.

For the compound `COCC1(COC)CCC(c2c(CN(C)CCN)nn3c2CN(C(=O)C(C)(C)C)CC3)CC1` [Example 2, 1-(2-(((2-aminoethyl)(methyl)amino)methyl)-3-(4,4-bis(methoxymethyl)cyclohexyl)-6,7-dihydropyrazolo[1,5-a]pyrazin-5(4H)-yl)-2,2-dimethylpropan-1-one], the IC50 was determined as 311 nM at PRMT1 and 158 nM in the assay with DOHH2 cells.
